We go through twelve compounds from patent US20250049970A1, “DLL3 TARGETING PEPTIDES AND CONSTRUCTS THEREOF” (MARIANA ONCOLOGY INC., priority 2023, published 2025).

*1 amine or outer side, *2 acyl side, *3 side chain or, on linkers, in order; H or OH if unused. Where a SMILES comes first, the peptide text is derived from it. Bridges are numbered along the chain shown (N, C = ends). Roman numbers before positions name the chains, in order. [ ]: non-standard residue; d: D form. The star is where a group is joined. X9 = CSCC[C@H](NC(=O)c1ccc(CNC(=O)CN2CCN(CC(=O)O)CCN(CC(=O)O)CCN(CC(=O)O)CC2)cc1)C(=O)N[C@H](C(=O)N[C@@H](CCCCN*)C(=O)O)C(C)C; X7 = O=C(O)CN1CCN(CC(=O)O)CCN(CC(=O)N[C@H]2CC[C@H](CC(=O)*)CC2)CCN(CC(=O)O)CC1; Ala(piperidin-4-yl) = O=C([C@H](CC1CCN([*:3])CC1)N[*:1])[*:2]; DOTA = O=C(O)CN1CCN(CC(=O)O)CCN(CC(=O)*)CCN(CC(=O)O)CC1; X5 = O=C(Cc1ccc(Br)cc1)NCCOCCOCCOCCOCCOCCOCCOCCOCC(=O)*; Trp(5-OH) = N[C@@H](Cc1c[nH]c2ccc(O)cc12)C(=O)O; Ala(morpholin-4-yl) = N[C@@H](CN1CCOCC1)C(=O)O; Trp(7-aza) = N[C@@H](Cc1c[nH]c2ncccc12)C(=O)O; 2Nal = N[C@@H](Cc1ccc2ccccc2c1)C(=O)O; Gly(4-THP) = N[C@H](C(=O)O)C1CCOCC1; X4 = O=C(C(CC1CCNCC1)N[*:1])[*:2]; tBuAla = CC(C)(C)C[C@H](N)C(=O)O; Chg = N[C@H](C(=O)O)C1CCCCC1; Tle = CC(C)(C)[C@H](N)C(=O)O; Aze = O=C(O)[C@@H]1CCN1; CH2 = C([*:1])[*:2]; Sar = CNCC(=O)O

The target in one test is T1, DLL3 (Homo sapiens, UniProt Q9NYJ7).
T1 sequence (Q9NYJ7 27-618): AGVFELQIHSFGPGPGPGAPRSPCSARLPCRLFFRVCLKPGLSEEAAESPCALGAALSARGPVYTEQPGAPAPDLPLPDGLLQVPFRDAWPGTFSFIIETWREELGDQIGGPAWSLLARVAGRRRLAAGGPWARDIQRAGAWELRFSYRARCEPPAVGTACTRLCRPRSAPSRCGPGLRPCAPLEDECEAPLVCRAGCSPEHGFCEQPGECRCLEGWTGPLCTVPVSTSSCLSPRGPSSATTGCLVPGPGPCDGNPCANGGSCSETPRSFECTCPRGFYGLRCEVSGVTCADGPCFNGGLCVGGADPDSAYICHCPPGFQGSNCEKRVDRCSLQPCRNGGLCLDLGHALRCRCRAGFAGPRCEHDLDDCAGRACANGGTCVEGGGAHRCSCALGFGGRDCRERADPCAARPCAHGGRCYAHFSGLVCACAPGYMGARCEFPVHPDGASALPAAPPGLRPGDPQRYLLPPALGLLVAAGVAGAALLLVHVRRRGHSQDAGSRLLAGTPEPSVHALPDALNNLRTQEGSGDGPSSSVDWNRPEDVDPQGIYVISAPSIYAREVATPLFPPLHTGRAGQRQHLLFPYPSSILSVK
In words: SPR KD, biotinylated human DLL3 on streptavidin chip (Table 8). The arrangement: biotin (biotinylated). To be noted: SPR KD, biotinylated human DLL3 on streptavidin sensor chip, 25° C., 1:1 binding model. The text has this: Biotinylated target ligand human DLL3 was immobilized on a streptavidin sensor chip. A reference surface was set up for nonspecific binding and refractive index changes. […] Sensorgram curves were fitted with 1:1 binding model, and affinity and kinetic parameters were obtained using Biacore Insight evaluation 4.0. software.
What is called Kd is the equilibrium constant for the complex coming apart. Turning to `CC(=O)N[C@@H](Cc1c[nH]c2ccccc12)C(=O)N[C@H](C(=O)N[C@H](C(=O)N[C@H]1CSSC[C@@H](C(=O)N[C@@H](Cc2c[nH]c3ccccc23)C(=O)N2CCC[C@H]2C(N)=O)NC(=O)[C@H](CC(=O)O)NC(=O)[C@H](CCCCNC(=O)CNC(=O)[C@H](CO)NC(=O)CNC(=O)[C@H](CO)NC(=O)CNC(=O)[C@H](CO)NC(=O)CN2CCN(CC(=O)O)CCN(CC(=O)O)CCN(CC(=O)O)CC2)NC(=O)[C@H](Cc2ccc3ccccc3c2)NC(=O)[C@H](CC(N)=O)NC(=O)[C@H](CC2CCNCC2)NC1=O)C1CCCCC1)[C@@H](C)O` [compound 407, Ac-W-T-(Chg)-C(3)-[3-(4-piperidinyl)-Ala]-N-(2Nal)-Lys(G-S-G-S-G-S-DOTA)-D-C(3)-W-P-CONH2] (I: Ac-WT[Chg]C[Ala(piperidin-4-yl)]N[2Nal]KDCWP-NH2 / II: {DOTA}-SGSGSG; disulfide I:4-I:10; amide I:8-II:C), the dissociation constant (Kd) was below 1 nM.

Still in this test, the particulars now being: biotinylated human DLL3 on streptavidin sensor chip, 25° C., 1:1 binding model; read-out: SPR KD.
In the case of `CC[C@H](C)[C@H](NC(=O)[C@@H](NC(=O)[C@H](Cc1c[nH]c2ccccc12)NC(C)=O)[C@@H](C)O)C(=O)N[C@H]1CSSC[C@@H](C(=O)N[C@@H](Cc2c[nH]c3ccccc23)C(=O)N2CCC[C@H]2C(N)=O)NC(=O)[C@H](CC(=O)O)NC(=O)[C@H](Cc2c[nH]cn2)NC(=O)[C@H](Cc2c[nH]c3ncccc23)NC(=O)[C@H](CC(N)=O)NC(=O)[C@H](CC(N)=O)NC1=O` [compound 33, Ac-W-T-I-C(3)-N-N-(7Aza-W)-H-D-C(3)-W-P-CONH2] (Ac-WTICNN[Trp(7-aza)]HDCWP-NH2; disulfide 4-10), the Kd lay within 10 to 100 nM.

As for `CC(=O)N[C@@H](Cc1c[nH]c2ccccc12)C(=O)N[C@H](C(=O)N[C@H](C(=O)N[C@H]1CSSC[C@@H](C(=O)N[C@@H](Cc2c[nH]c3ccccc23)C(=O)N2CCC[C@H]2C(N)=O)NC(=O)[C@H](CC(=O)O)NC(=O)[C@H](CCCCNC(=O)CN2CCN(CC(=O)O)CCN(CC(=O)O)CCN(CC(=O)O)CC2)NC(=O)[C@H](Cc2ccc3ccccc3c2)NC(=O)[C@H](CC(N)=O)NC(=O)C(CC2CCNCC2)NC1=O)C1CCOCC1)[C@@H](C)O` (stereo partly drawn) [compound 319, Ac-W-T-(THPG)-C(3)-[3-(4-piperidinyl)-Ala]-N-(2Nal)-Lys(DOTA)-D-C(3)-W-P-CONH2] (Ac-WT[Gly(4-THP)]C[X4]N[2Nal]K(DOTA)DCWP-NH2; disulfide 4-10), the Kd is below 1 nM.

For the compound `CC(=O)N[C@@H](Cc1c[nH]c2ccccc12)C(=O)N[C@H](C(=O)N[C@H](C(=O)N[C@H]1CSCSC[C@@H](C(=O)N[C@@H](Cc2c[nH]c3ccccc23)C(=O)N2CCC[C@H]2C(=O)N[C@H](CCCCNC(=O)COCCOCCOCCOCCOCCOCCOCCOCCNC(=O)Cc2ccc(Br)cc2)C(N)=O)NC(=O)[C@H](CC(=O)O)NC(=O)[C@H](CCCCNC(=O)CN2CCN(CC(=O)O)CCN(CC(=O)O)CCN(CC(=O)O)CC2)NC(=O)[C@H](Cc2ccc3ccccc3c2)NC(=O)[C@H](CC(N)=O)NC(=O)[C@H](CC2CCNCC2)NC1=O)C1CCCCC1)[C@@H](C)O` [compound 418] (Ac-WT[Chg]C[Ala(piperidin-4-yl)]N[2Nal]K(DOTA)DCWP[dK](X5)-NH2; linker 4-10 via CH2), the Kd is below 1 nM.

Regarding `CC[C@H](C)[C@H](NC(=O)[C@@H](NC(=O)[C@H](Cc1c[nH]c2ccccc12)NC(C)=O)[C@@H](C)O)C(=O)N[C@H]1CSSC[C@@H](C(=O)N[C@@H](Cc2c[nH]c3ccccc23)C(=O)N(C)CC(N)=O)NC(=O)[C@H](CC(=O)O)NC(=O)[C@H](Cc2cnc[nH]2)NC(=O)[C@H](Cc2c[nH]c3ccccc23)NC(=O)[C@H](CC(N)=O)NC(=O)[C@H](CC(N)=O)NC1=O` [compound 334, Ac-W-T-I-C(3)-N-N-W-H-D-C(3)-W-(Sar)-CONH2] (Ac-WTICNNWHDCW[Sar]-NH2; disulfide 4-10), the Kd lay in the range of 10 to 100 nM.

In the case of `CC(=O)N[C@@H](Cc1c[nH]c2ccccc12)C(=O)N[C@H](C(=O)N[C@H](C(=O)N[C@H]1CSSC[C@@H](C(=O)N[C@@H](Cc2c[nH]c3ccccc23)C(=O)N2CCC[C@H]2C(N)=O)NC(=O)[C@H](CC(=O)O)NC(=O)[C@H](CCCCNC(=O)CN2CCN(CC(=O)O)CCN(CC(=O)O)CCN(CC(=O)O)CC2)NC(=O)[C@H](Cc2ccc3ccccc3c2)NC(=O)[C@H](CC(N)=O)NC(=O)[C@H](CN2CCOCC2)NC1=O)C(C)(C)C)[C@@H](C)O` (single isomer, unassigned) [compound 304, Ac-W-T-(Tbg)-C(3)-[3-(1-morpholinyl)-Ala]-N-(2Nal)-Lys(DOTA)-D-C(3)-W-P-CONH2], the Kd is 1 to 10 nM.

On to `CC(=O)N[C@@H](Cc1c[nH]c2ccccc12)C(=O)N[C@H](C(=O)N[C@H](C(=O)N[C@H]1CSSC[C@@H](C(=O)N[C@@H](Cc2c[nH]c3ccccc23)C(=O)N2CCC[C@H]2C(N)=O)NC(=O)[C@H](CC(=O)O)NC(=O)[C@H](CCCCNC(=O)C[C@H]2CC[C@H](NC(=O)CN3CCN(CC(=O)O)CCN(CC(=O)O)CCN(CC(=O)O)CC3)CC2)NC(=O)[C@H](Cc2ccc3ccccc3c2)NC(=O)[C@H](CC(N)=O)NC(=O)[C@H](CN2CCOCC2)NC1=O)C1CCCCC1)[C@@H](C)O` [compound 380, Ac-W-T-(Chg)-C(3)-[3-(1-morpholinyl)-Ala]-N-(2Nal)-Lys(Chx-DOTA)-D-C(3)-W-P-CONH2] (Ac-WT[Chg]C[Ala(morpholin-4-yl)]N[2Nal]K(X7)DCWP-NH2; disulfide 4-10), for which the Kd was below 1 nM.

In the case of `CSCC[C@H](NC(=O)c1ccc(CNC(=O)CN2CCN(CC(=O)O)CCN(CC(=O)O)CCN(CC(=O)O)CC2)cc1)C(=O)N[C@H](C(=O)N[C@@H](CCCCNC(=O)CC[C@@H]1NC(=O)[C@H](Cc2ccc3ccccc3c2)NC(=O)[C@H](CC(N)=O)NC(=O)[C@H](CC2CCNCC2)NC(=O)[C@@H](NC(=O)[C@@H](NC(=O)[C@@H](NC(=O)[C@H](Cc2c[nH]c3ccccc23)NC(C)=O)[C@@H](C)O)C(C)(C)C)CSSC[C@@H](C(=O)N[C@@H](Cc2c[nH]c3ccccc23)C(=O)N2CCC[C@H]2C(N)=O)NC(=O)[C@H](CC(=O)O)NC1=O)C(=O)O)C(C)C` [compound 377] (Ac-WT[Tle]C[Ala(piperidin-4-yl)]N[2Nal]E(X9)DCWP-NH2; disulfide 4-10), the Kd is 1 to 10 nM.

Take `CC[C@H](C)[C@H](NC(=O)[C@@H](NC(=O)[C@H](Cc1c[nH]c2ccc(O)cc12)NC(C)=O)[C@@H](C)O)C(=O)N[C@H]1CSSC[C@@H](C(=O)N[C@@H](Cc2c[nH]c3ccccc23)C(=O)N2CCC[C@H]2C(N)=O)NC(=O)[C@H](CC(=O)O)NC(=O)[C@H](Cc2c[nH]cn2)NC(=O)[C@H](Cc2c[nH]c3ccccc23)NC(=O)[C@H](CC(N)=O)NC(=O)[C@H](CC(N)=O)NC1=O` [compound 27, Ac-(5OH-W)-T-I-C(3)-N-N-W-H-D-C(3)-W-P-CONH2] (Ac-[Trp(5-OH)]TICNNWHDCWP-NH2; disulfide 4-10): the Kd lay in the range of 10 to 100 nM.

For the compound `CC(=O)N[C@H](Cc1c[nH]c2ccccc12)C(=O)N[C@@H](C(=O)N[C@@H](CC(C)(C)C)C(=O)N[C@@H]1CSCSC[C@@H](C(=O)N[C@@H](Cc2c[nH]c3ccccc23)C(=O)N2CCC[C@H]2C(N)=O)NC(=O)[C@H](CC(=O)O)NC(=O)[C@H](CCCCNC(=O)CN2CCN(CC(=O)O)CCN(CC(=O)O)CCN(CC(=O)O)CC2)NC(=O)[C@H](Cc2ccc3ccccc3c2)NC(=O)[C@H](CC(N)=O)NC(=O)[C@H](CC(N)=O)NC1=O)[C@H](C)O` [compound 423, Ac-W-T-(t-Bu-Ala)-[D-Cys(1)]-N-N-(2Nal)-Lys(DOTA)-D-C(1)-W-P-CONH2] (Ac-[dW][dT][tBuAla][dC]NN[2Nal]K(DOTA)DCWP-NH2; linker 4-10 via CH2), the Kd lay in the range of 100 to 300 nM.

On to `CC[C@H](C)[C@H](NC(=O)[C@@H](NC(=O)[C@H](Cc1c[nH]c2ccccc12)NC(C)=O)[C@@H](C)O)C(=O)N[C@H]1CSSC[C@@H](C(=O)N[C@@H](Cc2c[nH]c3ccccc23)C(=O)N2CC[C@H]2C(N)=O)NC(=O)[C@H](CC(=O)O)NC(=O)[C@H](Cc2cnc[nH]2)NC(=O)[C@H](Cc2c[nH]c3ccccc23)NC(=O)[C@H](CC(N)=O)NC(=O)[C@H](CC(N)=O)NC1=O` [compound 335, Ac-W-T-I-C(3)-N-N-W-H-D-C(3)-W-(Aze)-CONH2] (Ac-WTICNNWHDCW[Aze]-NH2; disulfide 4-10), for which the Kd lay in the range of 1 to 10 nM.

For the compound `CC[C@@H](C)[C@H](NC(=O)[C@@H](NC(=O)[C@H](Cc1c[nH]c2ccccc12)NC(C)=O)[C@@H](C)O)C(=O)N[C@H]1CSSC[C@@H](C(=O)N[C@@H](Cc2c[nH]c3ccccc23)C(=O)N2CCC[C@H]2C(N)=O)NC(=O)[C@H](CC(=O)O)NC(=O)[C@H](CCCCNC(=O)CN2CCN(CC(=O)O)CCN(CC(=O)O)CCN(CC(=O)O)CC2)NC(=O)[C@H](Cc2ccc3ccccc3c2)NC(=O)[C@H](CC(N)=O)NC(=O)C(CN2CCOCC2)NC1=O` (single isomer, unassigned) [compound 307, Ac-W-T-(Allo-Ile)-C(3)-[3-(1-morpholinyl)-Ala]-N-(2Nal)-Lys(DOTA)-D-C(3)-W-P-CONH2], the Kd lay within 1 to 10 nM.
